According to US5093337A, “Substituted derivatives of 20,21-dinoreburnamenine, their use as medicaments and the pharmaceutical compositions containing them” (Roussel Uclaf, priority 1987, dated 1992):

What was measured:
[1] = Asphyxic anoxemia (latency time for disappearance of the ECoG); assay type: in vivo, Sprague Dawley (Charles River) male rat; details: 10 mg/kg intravenous, 3 minutes before asphyxia; rat; read-out: % of variation of the latency time for disappearance of the ECoG after asphyxia
Method: The test is carried out using a Sprague Dawley (Charles River) male rat anaesthetized with ethyl ether, immobilized (tube curare 1 mg/kg I.V.) and artificially ventilated with air. The electrocorticogram (ECoG) and the arterial pressure are recorded. The rectal temperature is maintained at around 36° C. and the level of carbon dioxide in the blood is maintained between 35 and 40 torr. The products are administered at a dose of 10 mg/kg by intravenous route in a volume of 1 ml/kg 3 minutes before asphyxia obtained by stopping the artificial respiration. The latency time for the disappearance of the ECoG is measured.

[2] = system: adrenergic alpha2 receptors; experiment: Affinity for adrenergic alpha2 receptors (inhibition of specific 3H rauwolscine fixation, rat cortex); assay type: binding, rat (male; brain cortices); details: from CD (phentolamine) and CX (product) inhibiting 50% of specific fixation of 3H rauwolscine 0.15 nM, 25° C., 45 minutes
Method: 1) Affinity for adrenergic alpha2 receptors:
10 cortices removed from the brains of male rats weighing on average 150 g are homogenized in 90 ml of 0.32M sucrose. After centrifuging 1,000 g of the homogenized mixture for 10 minutes at 0° C., the supernatant is centrifuged at 30,000 g for 10 minutes at 0°/+4° C. The deposit is put in suspension in 240 ml of buffer TrisHCl 50 mM pH 7.7, and centrifuged at 30,000 g for 15 minutes at 0°/+4° C. The new deposit obtained is put in suspension in 480 ml of buffer NaKPO4 pH 7.4 50 mM.
2 ml of suspension is then incubated for 45 minutes at 25° C. in the presence of ^3 H rauwolscine at a 0.15 nM concentration:
ii) with increasing concentrations of the product under test or,
iii) in order to determine the non-specific fixation,
with non-radioactive phentolamine at a 10^-5 M concentration.
The incubated suspensions are filtered on Whatman GF/C and the filters are washed three times with 5 ml of buffer NaKPO4 pH 7.4 at 0° C. The radioactivity of the filters is measured by liquid scintillation.
The affinity of the product tested for adrenergic alpha2 receptors is given in relation to the phentolamine as a reference product.
CD=concentration of phentolamine inhibiting 50% of the specific fixation of ^3 H rauwolscine;
CX=concentration of the product under test inhibiting 50% of the specific fixation of ^3 H rauwolscine.
The relative affinity is given by the relation: [formula]

[3] = Test for hypobar anoxemia in a mouse (survival time); assay type: in vivo; details: 10 mg/kg intraperitoneal, 60 minutes before the test; 600 mmHg depression; relative to control mice
Method: 3) Test for hypobar anoxemia in a mouse
This consists of measuring for a maximum duration of 3 minutes the survival time of mice placed in a 2 liter chamber in which a 600 mmHg depression is carried out. Mice deprived of food for 6 hours are used. The products are administered at a dose of 10 mg/kg by intraperitoneal route in a volume of 0.2 ml/10 g 60 minutes before the test.
The increase in survival time is noted, expressed as a percentage of the animals treated in relation to the control animals, submitted to the same conditions.

[4] = Test for anti-depressive activity (forced swimming, duration of immobility); assay type: in vivo, Sprague Dawley rats; details: ip, 5 min; i.p. 24, 5 and half an hour before the test; immobility over 5 minutes; rat; read-out: AD50 (the source's name)
Method: 5) Test for anti-depressive activity
The tests are carried out on groups of 5 Sprague Dawley rats. The unaffected animals are placed for 15 minutes in a vertical cylinder of plexiglass (diameter: 18 cm, height: 40 cm) containing water at 25° C. at a height of 15 cm (initial swimming test). They are then dried for 15 minutes in a chamber heated to 32° C.; 24 hours later, they are replaced in the cylinder, filled with water, and the total duration of the periods of immobility is measured over 5 minutes.
The compound is administered i.p. successively 24, 5 and half an hour before the test. The first administration takes place immediately after the initial swimming test, just before the animals are replaced in their breeding box.
The averages of the treated groups are compared with those of the control group using Dunnett's test.

[5] = Anti-amnesic effect in a passive avoidance (electric shock treatment amnesia); assay type: in vivo; details: 2 mg/kg by oral route; rat
Source text: Anti-Amnesic Effect in a Passive Avoidance
Rats are placed individually in the lighted compartment of a box having two compartments, the other one being dark. They take refuge immediately in the dark compartment and upon their entry the rats receive an electric shock (1 mA/5 sec) from the grated floor. […] In the second group, the electric shock is immediately followed by the application of an amnesic electric shock treatment (60 mA, 0.6 ms, 0.6 s) (electric shock treatment control group). The third group is identical to the second, but the electric shock treatment is immediately followed by the administration of the compound under test (treated group). Twenty-four hours later, the animals are replaced in the lighted compartment of the box and the latency time of entry into the dark compartment is measured (up to 300 sec. maximum). For the controls, this time is close to 300 sec. The electric shock treatment controls on the other hand move into the dark compartment much more rapidly (amnesic effect).

[6] = Test for spontaneous alternation after septal cholinergic injury; assay type: in vivo; details: range of doses from 1 to 10 mg/kg i.p., 30 minutes before each session; rat
Source text: 4) Test for spontaneous alternation after septal cholinergic injury
The behaviour of spontaneous alternation is an essential characteristic of the behavioural performance of the rat, which, put in a situation of choice between a familiar stimulus and a new stimulus, will choose the latter. Thus, in the case of a labyrinth Y, the animal will preferably choose an arm which has not yet been explored as opposed to an arm that he has just visited (spontaneous alternation). This faculty of discrimination between the "familiar" and the "new" implies the coming into play of a form of memory, the Short Term Memory or Work Memory. The performances of spontaneous alternation allow therefore an evaluation of the capacity of this type of memory.
The method used consists of creating a mnesic deficit in the rat, by lesion of the septo-hippocampic cholinergic system, and of researching whether the product under test is capable of reversing this deficit. In the present case, this deficit is evaluated in a spontaneous alternation behaviour; the lesioned animal has alternation performances of about 50%, because it carries out its choices by chance.
Each experiment comprises a control-vehicle group, a lesioned-vehicle group and one or two lesioned groups receiving the product under test. […]

SMILES	change in vivo at 10 mg/kg [1]	RAL (relative affinity, in relation to phentolamine as reference product) [2]	also measured
COc1ccc2c3c4n(c2c1)CC[C@H]1CCCN(CC3)[C@H]41 (relative stereo) [Example 25, [(±) (16alpha)]-14,15-dihydro-11-methoxy-20,21-dinoreburnamenine]	20%	–	–
Cc1ccc2c3c4n(c2c1)CC[C@H]1CCCN(CC3)[C@H]41 (relative stereo) [Example 12, [(±) (16alpha)]-14,15-dihydro-11-methyl-20,21-dinor-eburnamenine]	18%	39	–
COc1ccc2c(c1)c1c3n2[C@H](O)C[C@H]2CCCN(CC1)[C@H]32 (relative stereo) [Example 28, [(±) (14alpha, 16alpha)]-14,15-dihydro-10-methoxy-20,21-dinoreburnamenin-14-ol]	35%	–	–
COc1ccc2c(c1)c1c3n2C=C[C@H]2CCCN(CC1)[C@H]32 (relative stereo) [Example 29, [(±) (16alpha)]-10-methoxy-20,21-dinoreburnamenine]	25%	–	–
O=[N+]([O-])c1cccc2c1c1c3n2C(O)CC2CCCN(CC1)C32 (racemic) [Example 40, [(±) (16alpha)]-9-nitro-14,15dihydro-20,21-dinoreburnamenin-14-ol]	–	–	% of increase in survival time [3]: 22%
Clc1ccc2c3c4n(c2c1)C=C[C@H]1CCCN(CC3)[C@H]41 (relative stereo) [Example 2, [(±) (16alpha)]-11-chloro-20,21-dinoreburnamenine]	43%	110	–
Cc1ccc2c3c4n(c2c1)C=C[C@H]1CCCN(CC3)[C@H]41 (relative stereo) [Example 10, [(±) (16alpha)]-11-methyl-20,21-dinoreburnamenine]	47%	160	ED50 [4]: 13 mg/kg; reversal of the effect of an electric shock treatment (passive avoidance) [5]: reverses the anti-amnesic effect of an electric shock treatment; reversal of the mnesic deficit caused by the septal cholinergic lesion (spontaneous alternation) [6]: reverses the mnesic deficit caused by the septal cholinergic lesion
COc1ccc2c3c4n(c2c1)[C@H](O)C[C@H]1CCCN(CC3)[C@H]41 (relative stereo) [Example 22, [(±) (14alpha, 16alpha)]-14,15-dihydro-11-methoxy-20,21-dinoreburnamenin-14-ol]	18%	–	–
O=[N+]([O-])c1cccc2c1c1c3n2C=C[C@H]2CCCN(CC1)[C@H]32 (relative stereo) [Example 41, [(±) (16alpha)]-9-nitro-20,21-dinoreburnamenine]	–	–	% of increase in survival time [3]: 13%
Cc1ccc2c(c1)c1c3n2C=C[C@H]2CCCN(CC1)[C@H]32 (relative stereo) [Example 16, [(±) (16alpha)]-10-methyl-20,21-dinoreburnamenine]	22%	136	–
Cc1ccc2c3c4n(c2c1)[C@H](O)C[C@H]1CCCN(CC3)[C@H]41 (relative stereo) [Example 8, [(±) (14alpha, 16alpha)]-14,15-dihydro-11-methyl-20,21-dinoreburnamenin-14-ol]	37%	–	–
Cc1ccc2c(c1)c1c3n2CC[C@H]2CCCN(CC1)[C@H]32 (relative stereo) [Example 18, [(±) (16alpha)]-14,15-dihydro-10-methyl-20,21-dinoreburnamenine]	–	39	–
O[C@@H]1C[C@H]2CCCN3CCc4c(n1c1ccc(Cl)cc41)[C@H]23 (relative stereo) [Example 4, [(±) (14alpha, 16alpha)]-10-chloro-14,15-dihydro-20,21-dinoreburnamenin-14-ol]	–	35	–
COc1ccc2c3c4n(c2c1)C=C[C@H]1CCCN(CC3)[C@H]41 (relative stereo) [Example 24, [(±) 16alpha]-11-methoxy-20,21-norburnamenine]	35%	–	–
O=[N+]([O-])c1ccc2c3c4n(c2c1)C=C[C@H]1CCCN(CC3)[C@H]41 (relative stereo) [Example 39, [(±) (16alpha)]-11-nitro-20,21-dinoreburnamenine]	–	–	% of increase in survival time [3]: 14%
Clc1ccc2c(c1)c1c3n2C=C[C@H]2CCCN(CC1)[C@H]32 (relative stereo) [Example 5, [(±) 16alpha]-10-chloro-20,21-dinoreburnamenine]	26%	55	–
COc1ccc2c3c4n(c2c1)[C@@H](O)C[C@H]1CCCN(CC3)[C@H]41 (relative stereo) [Example 21, [(±) (14beta, 16alpha)]-14,15-dihydro-11-methoxy-20,21-dinoreburnamenin-14-ol]	30%	–	–
